Assay: xn = mol fraction of the nth substance listed
Details: 101 kPa, Liquid, Vibrating tube method

CCCCN(CCCC)CCCC [tributylamine] + CCc1ccccc1
mass density [kg/m3]
Details	293.15 K	298.15 K	303.15 K	313.15 K	323.15 K	333.15 K
x1 = 0.0829	852.96	848.66	844.35	835.7	827	818.22
x1 = 0.1602	841.78	837.56	833.34	824.84	816.3	807.68
x1 = 0.2404	831.68	827.53	823.38	815.04	806.64	798.19
x1 = 0.3189	823	818.92	814.83	806.62	798.36	790.04
x1 = 0.3972	815.35	811.33	807.3	799.2	791.06	782.85
x1 = 0.4788	808.26	804.3	800.32	792.33	784.3	776.21
x1 = 0.572	801.08	797.17	793.25	785.37	777.45	769.48
x1 = 0.6382	796.47	792.6	788.71	780.91	773.07	765.18
x1 = 0.7192	791.35	787.52	783.67	775.96	768.2	760.39
x1 = 0.8022	786.64	782.83	779.02	771.38	763.69	755.96
x1 = 0.8765	782.75	778.98	775.21	767.62	760	752.32
x1 = 0.9556	778.92	775.18	771.44	763.92	756.36	748.76

CCCCN(CCCC)CCCC [tributylamine] + Cc1ccc(C)cc1
mass density [kg/m3]
Details	293.15 K	298.15 K	303.15 K	313.15 K	323.15 K	333.15 K
x1 = 0.0834	848.23	843.97	839.71	831.14	822.53	813.86
x1 = 0.1617	837.85	833.67	829.48	821.06	812.59	804.05
x1 = 0.2416	828.6	824.47	820.35	812.06	803.72	795.32
x1 = 0.3196	820.59	816.53	812.46	804.29	796.06	787.79
x1 = 0.3984	813.4	809.38	805.37	797.3	789.19	781.03
x1 = 0.482	806.6	802.64	798.67	790.72	782.71	774.64
x1 = 0.56	800.89	796.97	793.04	785.17	777.26	769.29
x1 = 0.633	796.02	792.14	788.26	780.46	772.62	764.73
x1 = 0.7229	790.59	786.75	782.91	775.2	767.45	759.65
x1 = 0.7717	787.86	784.05	780.24	772.57	764.86	757.1
x1 = 0.878	782.45	778.68	774.9	767.33	759.71	752.04
x1 = 0.9458	779.3	775.56	771.81	764.28	756.72	749.1

CCCCN(CCCC)CCCC [tributylamine] + Cc1cccc(C)c1
mass density [kg/m3]
Details	293.15 K	298.15 K	303.15 K	313.15 K	323.15 K	333.15 K
x1 = 0.0803	851.21	846.99	842.76	834.27	825.72	817.11
x1 = 0.1564	840.57	836.42	832.26	823.89	815.48	806.98
x1 = 0.2405	830.31	826.21	822.11	813.87	805.59	797.24
x1 = 0.3223	821.61	817.57	813.53	805.4	797.23	788.99
x1 = 0.3983	814.42	810.43	806.43	798.4	790.32	782.19
x1 = 0.4784	807.64	803.69	799.74	791.81	783.83	775.79
x1 = 0.5497	802.22	798.31	794.4	786.54	778.64	770.68
x1 = 0.6375	796.16	792.3	788.42	780.65	772.84	764.97
x1 = 0.7175	791.21	787.38	783.55	775.85	768.1	760.32
x1 = 0.7958	786.77	782.98	779.18	771.54	763.87	756.15
x1 = 0.8823	782.31	778.55	774.78	767.21	759.6	751.95
x1 = 0.9616	778.58	774.84	771.1	763.6	756.05	748.45

CCCCN(CCCC)CCCC [tributylamine] + Cc1ccccc1
mass density [kg/m3]
Details	293.15 K	298.15 K	303.15 K	313.15 K	323.15 K	333.15 K
x1 = 0.0818	851.2	846.71	842.2	833.14	824.01	814.79
x1 = 0.1626	838.57	834.2	829.81	821	812.13	803.18
x1 = 0.2401	828.4	824.14	819.86	811.26	802.6	793.86
x1 = 0.3243	819.07	814.89	810.71	802.29	793.83	785.3
x1 = 0.3987	811.93	807.83	803.72	795.46	787.15	778.78
x1 = 0.4789	805.28	801.25	797.2	789.08	780.92	772.69
x1 = 0.5592	799.41	795.44	791.46	783.47	775.43	767.34
x1 = 0.6414	794.14	790.22	786.3	778.42	770.5	762.52
x1 = 0.7238	789.42	785.56	781.69	773.92	766.11	758.24
x1 = 0.7985	785.62	781.8	777.97	770.28	762.56	754.78
x1 = 0.8802	781.79	778.01	774.23	766.64	759	751.31
x1 = 0.8991	780.96	777.2	773.42	765.85	758.23	750.57

CCCCN(CCCC)CCCC [tributylamine] + Cc1ccccc1C
mass density [kg/m3]
Details	293.15 K	298.15 K	303.15 K	313.15 K	323.15 K	333.15 K
x1 = 0.0762	865.26	861.1	856.94	848.59	840.19	831.72
x1 = 0.1611	851.26	847.17	843.07	834.83	826.55	818.19
x1 = 0.2324	840.99	836.94	832.88	824.73	816.54	808.28
x1 = 0.3142	830.6	826.6	822.59	814.54	806.44	798.29
x1 = 0.3986	821.15	817.19	813.22	805.26	797.25	789.19
x1 = 0.481	812.95	809.03	805.1	797.21	789.28	781.29
x1 = 0.5686	805.17	801.29	797.4	789.61	781.76	773.87
x1 = 0.6368	799.67	795.83	791.97	784.23	776.45	768.61
x1 = 0.7145	793.98	790.16	786.34	778.66	770.94	763.17
x1 = 0.769	790.27	786.47	782.67	775.03	767.36	759.64
x1 = 0.8741	783.74	779.98	776.21	768.65	761.06	753.41
x1 = 0.9545	779.3	775.56	771.81	764.3	756.75	749.14

CCCCN(CCCC)CCCC [tributylamine] + O=[N+]([O-])c1ccccc1
mass density [kg/m3]
Details	293.15 K	298.15 K	303.15 K	313.15 K	323.15 K	333.15 K
x1 = 0.0806	1132.44	1127.65	1122.87	1113.29	1103.7	1094.1
x1 = 0.1692	1068.2	1063.58	1058.97	1049.72	1040.46	1031.17
x1 = 0.2426	1023.24	1018.75	1014.26	1005.27	996.24	987.2
x1 = 0.3259	979.47	975.11	970.74	961.98	953.2	944.4
x1 = 0.3993	945.96	941.69	937.43	928.86	920.27	911.63
x1 = 0.4829	912.69	908.52	904.33	895.96	887.56	879.12
x1 = 0.5607	885.41	881.32	877.22	869.01	860.76	852.46
x1 = 0.6392	861.09	857.07	853.04	844.97	836.86	828.72
x1 = 0.7176	839.19	835.25	831.29	823.36	815.4	807.4
x1 = 0.7976	819.27	815.39	811.5	803.7	795.86	787.99
x1 = 0.8779	801.19	797.38	793.55	785.88	778.17	770.42
x1 = 0.9546	785.56	781.8	778.03	770.48	762.89	755.25
